Measurements reported in publication doi:10.1101/2024.01.05.573888v1 (biorxiv, 2024).
Like-named read-outs stand apart in the source and are kept apart here.

Key:
Assay in all cases: ITC
Assay type in all cases: binding
PaKPR2 [1] = target: T1, PaKPR2 (Pseudomonas aeruginosa, UniProt A0A0H2Z9K5)
T1 sequence (A0A0H2Z9K5 1-315): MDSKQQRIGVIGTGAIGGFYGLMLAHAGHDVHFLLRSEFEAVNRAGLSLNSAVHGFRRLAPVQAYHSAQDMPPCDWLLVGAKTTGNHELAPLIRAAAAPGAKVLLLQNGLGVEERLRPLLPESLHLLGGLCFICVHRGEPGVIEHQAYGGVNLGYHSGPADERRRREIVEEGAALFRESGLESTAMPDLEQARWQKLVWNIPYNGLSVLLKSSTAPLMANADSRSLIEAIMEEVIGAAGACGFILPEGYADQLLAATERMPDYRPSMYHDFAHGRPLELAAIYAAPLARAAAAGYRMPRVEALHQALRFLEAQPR

PaKPR2 [2] = target: T1, PaKPR2; remark: listed apart in the source
PaKPR2 [3] = target: T1, PaKPR2; remark: listed apart in the source

| Structure (SMILES) | Kd (PaKPR2 [1]) | further results |
| --- | --- | --- |
| O=C(O)C(=O)c1cccs1 | 1.34 µM | – |
| O=C(O)C(=O)c1ccco1 [2-Furyl glyoxylate] | 0.392 µM | – |
| CC(C)CC(=O)C(=O)O [2-ketoisocaproate] | – | Kd (PaKPR2 [2]): 3.05 µM |
| O=C(O)C(=O)CCc1ccccc1 [2-oxo-4-phenylbutanoic acid] | 9.09 µM | – |
| CC[C@H](C)C(=O)C(=O)O [3methyl 2 ketopentanoate] | – | Kd (PaKPR2 [3]): 11.2 µM |
| NC(=O)C1=CN([C@@H]2O[C@H](COP(=O)(O)OP(=O)(O)OC[C@H]3O[C@@H](n4cnc5c(N)ncnc54)[C@H](O)[C@@H]3O)[C@@H](O)[C@H]2O)C=CC1 [NADH] | 98 µM | – |
| NC(=O)C1=CN([C@@H]2O[C@H](COP(=O)(O)OP(=O)(O)OC[C@H]3O[C@@H](n4cnc5c(N)ncnc54)[C@H](OP(=O)(O)O)[C@@H]3O)[C@@H](O)[C@H]2O)C=CC1 [NADPH] | – | Kd (PaKPR2 [3]): 7.68 µM |
| O=C(O)C(=O)c1ccccc1 [Phenyl glyoxylate] | 3.53 µM | – |
